Patent publication US9771406B2, “Peptidic dual GLP-1/glucagon receptor agonists derived from exendin-4” (priority 2014, dated 2017)

Columns and labels:
human glucagon receptor = molecular target: T1, human glucagon receptor (Homo sapiens, UniProt P47871); assay: cAMP response of HEK-293 cells stably expressing human glucagon receptor (HTRF); format: cell-based; details: Table 6; cAMP formation; read-out: EC50 hGlucagon-R
T1 construct: expressed in transfected cells; host or cells: HEK-293
Procedure: (§1) cAMP content of cells was determined using a kit from Cisbio Corp. (cat. no. 62AM4PEC) based on HTRF (Homogenous Time Resolved Fluorescence). For preparation, cells were split into T175 culture flasks and grown overnight to near confluency in medium (DMEM/10% FBS). Medium was then removed and cells washed with PBS lacking calcium and magnesium, followed by proteinase treatment with accutase (Sigma-Aldrich cat. no. A6964). Detached cells were washed and resuspended in assay buffer (1×HBSS; 20 mM HEPES, 0.1% BSA, 2 mM IBMX) and cellular density determined. They were then diluted to 400000 cells/ml and 25 μl-aliquots dispensed into the wells of 96-well plates. For measurement, 25 μl of test compound in assay buffer was added to the wells, followed by incubation for 30 minutes at room temperature.
(§2) Potencies of peptidic compounds at the GLP-1, glucagon and GIP receptors were determined by exposing cells expressing human glucagon receptor (hGCG R), human GIP (hGIP R) and human GLP-1 receptor (hGLP-1 R) to the listed compounds at increasing concentrations and measuring the formed cAMP as described in Methods.

human GIP receptor = molecular target: T2, human GIP receptor (Homo sapiens, UniProt P48546); assay: cAMP response of HEK-293 cells stably expressing human GIP receptor (HTRF); format: cell-based; details: Table 6; cAMP formation; read-out: EC50 hGIP-R
T2 construct: expressed in transfected cells; host or cells: HEK-293
T2 sequence (P48546 22-466): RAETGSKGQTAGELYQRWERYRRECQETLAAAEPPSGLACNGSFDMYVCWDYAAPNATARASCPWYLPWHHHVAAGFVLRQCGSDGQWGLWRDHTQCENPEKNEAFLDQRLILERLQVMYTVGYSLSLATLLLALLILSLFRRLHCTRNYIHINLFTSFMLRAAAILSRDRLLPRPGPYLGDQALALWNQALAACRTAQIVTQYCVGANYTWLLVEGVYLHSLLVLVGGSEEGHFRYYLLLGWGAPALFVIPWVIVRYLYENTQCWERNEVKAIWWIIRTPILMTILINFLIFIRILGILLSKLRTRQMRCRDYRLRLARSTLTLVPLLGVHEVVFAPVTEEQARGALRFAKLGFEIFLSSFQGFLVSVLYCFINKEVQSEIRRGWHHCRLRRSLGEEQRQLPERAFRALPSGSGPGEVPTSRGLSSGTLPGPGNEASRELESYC
Procedure: as §1, §2

[1] = Solubility testing of exendin-4 derivatives (HPLC-UV of supernatant); format: physicochemical
Procedure: Prior to the testing of solubility and stability of a peptide batch, its purity (HPLC-UV) was determined. […] Therefore, solutions from solid samples were prepared in different buffer systems with a concentration of 10 mg/mL compound based on the previously determined % purity. HPLC-UV was performed after 2 h of gentle agitation from the supernatant, which was obtained by 20 min of centrifugation at 4500 rpm. […] This analysis also served as starting point (t0) for the stability testing.

[2] = Stability testing in solution, 7 days at 40° C. (% remaining peptide, HPLC-UV); format: physicochemical; details: buffer, 168 h
Procedure: After that time course, the sample was centrifuged for 20 min at 4500 rpm and 0.2 μL of the supernatant were analysed with HPLC-UV.
For determination of the amount of the remaining peptide, the peak areas of the target compound at t0 and t7 were compared, resulting in “% remaining peptide”, following the equation % remaining peptide=[(peak area peptide t7)×100]/peak area peptide t0.
The stability is expressed as “% remaining peptide”.

[3] = Pharmacokinetic testing in mice (plasma LC/MS); details: mouse, in vivo, sc, 1 mg/kg
Procedure: Mice are dosed 1 mg/kg subcutaneously (s.c.). The mice are sacrificed and blood samples are collected after 0.25, 0.5, 1, 2, 4, 8, 16 and 24 hours post application. Plasma samples are analyzed after protein precipitation via liquid chromatography mass spectrometry (LC/MS). PK parameters and half-life were calculated using WinonLin Version 5.2.1 (non-compartment model).
Pharmacokinetic profiles were determined as described in Methods.

human GLP-1 receptor = molecular target: T3, human GLP-1 receptor (Homo sapiens, UniProt P43220); assay: cAMP response of HEK-293 cells stably expressing human GLP-1 receptor (HTRF); format: cell-based; details: Table 6; cAMP formation; read-out: EC50 hGLP-1R
T3 construct: expressed in transfected cells; host or cells: HEK-293
Procedure: as §1, §2

T1 sequence (P47871 26-477): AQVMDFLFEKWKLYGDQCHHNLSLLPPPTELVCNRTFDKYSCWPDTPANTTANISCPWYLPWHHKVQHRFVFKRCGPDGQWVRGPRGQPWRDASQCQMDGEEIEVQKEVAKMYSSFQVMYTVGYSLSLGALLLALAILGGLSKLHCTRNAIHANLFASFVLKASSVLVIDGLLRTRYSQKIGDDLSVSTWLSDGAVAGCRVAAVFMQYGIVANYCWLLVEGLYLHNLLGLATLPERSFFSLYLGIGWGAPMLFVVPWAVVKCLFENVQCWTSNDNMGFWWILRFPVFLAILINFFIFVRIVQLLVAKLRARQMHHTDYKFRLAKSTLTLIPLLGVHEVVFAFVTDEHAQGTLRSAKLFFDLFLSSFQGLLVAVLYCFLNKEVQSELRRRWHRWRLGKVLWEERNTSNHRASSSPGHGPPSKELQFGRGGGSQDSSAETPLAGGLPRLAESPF
T3 sequence (P43220 24-463): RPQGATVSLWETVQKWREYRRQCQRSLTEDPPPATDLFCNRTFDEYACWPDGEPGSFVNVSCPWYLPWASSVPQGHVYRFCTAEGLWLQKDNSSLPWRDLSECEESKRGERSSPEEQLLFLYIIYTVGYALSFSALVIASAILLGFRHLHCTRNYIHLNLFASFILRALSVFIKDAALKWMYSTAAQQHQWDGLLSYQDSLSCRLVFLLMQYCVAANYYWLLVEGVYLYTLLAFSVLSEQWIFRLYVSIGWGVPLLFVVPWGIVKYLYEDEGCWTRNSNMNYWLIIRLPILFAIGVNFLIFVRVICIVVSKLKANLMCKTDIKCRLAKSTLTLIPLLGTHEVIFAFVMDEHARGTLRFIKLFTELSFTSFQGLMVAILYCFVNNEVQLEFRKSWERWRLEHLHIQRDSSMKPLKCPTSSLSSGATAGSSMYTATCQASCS

SMILES | EC50 (human glucagon receptor) [pM] | EC50 (human GIP receptor) [pM] | solubility at 2 h ([1]; pH 4.5) [µg/mL] | solubility at 2 h ([1]; pH 7.4) [µg/mL] | Stability (pH 4.5), % remaining peptide [2] [%] | Stability (pH 7.4), % remaining peptide [2] [%] | Cmax [3] [ng/mL] | half-life [3] [h] | EC50 (human GLP-1 receptor) [pM]
CCCCCCCCCCCCCCCC(=O)N[C@@H](CCC(=O)N[C@@H](CCC(=O)NCCCC[C@H](NC(=O)[C@H](CCC(N)=O)NC(=O)[C@H](CCCCN)NC(=O)[C@H](CO)NC(=O)[C@H](CC(C)C)NC(=O)[C@H](CC(=O)O)NC(=O)[C@H](CO)NC(=O)[C@@H](NC(=O)[C@H](Cc1ccccc1)NC(=O)[C@@H](NC(=O)CNC(=O)[C@H](Cc1c[nH]cn1)NC(=O)C(C)(C)NC(=O)[C@@H](N)Cc1c[nH]cn1)[C@@H](C)O)[C@@H](C)O)C(=O)N[C@@H](CCC(=O)O)C(=O)N[C@@H](CCC(=O)O)C(=O)N[C@@H](CCC(=O)O)C(=O)N[C@@H](C)C(=O)N[C@H](C(=O)N[C@@H](CCCNC(=N)N)C(=O)N[C@@H](CC(C)C)C(=O)N[C@@H](Cc1ccccc1)C(=O)N[C@H](C(=O)N[C@@H](CCC(=O)O)C(=O)N[C@@H](Cc1c[nH]c2ccccc12)C(=O)N[C@@H](CC(C)C)C(=O)N[C@@H](CCCCN)C(=O)N[C@@H](C)C(=O)NCC(=O)NCC(=O)N1CCC[C@H]1C(=O)N[C@@H](CO)C(=O)N[C@@H](CO)C(=O)NCC(=O)N[C@@H](C)C(=O)N1CCC[C@H]1C(=O)N1CCC[C@H]1C(=O)N1CCC[C@H]1C(=O)N[C@@H](CO)C(N)=O)[C@@H](C)CC)C(C)C)C(=O)O)C(=O)O [compound 11] | 8.9 | 7.9 | > 5000 | > 5000 | 97.5 | 95.8 | 3510 | 3.3 | 
CCCCCCCCCCCCCCCC(=O)N[C@@H](CCC(=O)NCCCC[C@H](NC(=O)[C@H](CCC(N)=O)NC(=O)[C@H](CCCCN)NC(=O)[C@H](CO)NC(=O)[C@H](CC(C)C)NC(=O)[C@H](CC(=O)O)NC(=O)[C@H](CO)NC(=O)[C@@H](NC(=O)[C@H](Cc1ccccc1)NC(=O)[C@@H](NC(=O)CNC(=O)[C@H](Cc1c[nH]cn1)NC(=O)C(C)(C)NC(=O)[C@@H](N)Cc1c[nH]cn1)[C@@H](C)O)[C@@H](C)O)C(=O)N[C@@H](CCC(=O)O)C(=O)N[C@@H](CCC(=O)O)C(=O)N[C@@H](CCC(=O)O)C(=O)N[C@@H](C)C(=O)N[C@H](C(=O)N[C@@H](CCCNC(=N)N)C(=O)N[C@@H](CC(C)C)C(=O)N[C@@H](Cc1ccccc1)C(=O)N[C@H](C(=O)N[C@@H](CCC(=O)O)C(=O)N[C@@H](Cc1c[nH]c2ccccc12)C(=O)N[C@@H](CC(C)C)C(=O)N[C@@H](CCCCN)C(=O)N[C@@H](C)C(=O)NCC(=O)NCC(=O)N1CCC[C@H]1C(=O)N[C@@H](CO)C(=O)N[C@@H](CO)C(=O)NCC(=O)N[C@@H](C)C(=O)N1CCC[C@H]1C(=O)N1CCC[C@H]1C(=O)N1CCC[C@H]1C(=O)N[C@@H](CO)C(N)=O)[C@@H](C)CC)C(C)C)C(=O)O [compound 12] | 12.8 | 8.8 | > 5000 | > 5000 | 96.7 | 92.0 |  |  | 3.3
CCCCCCCCCCCCCCCCCC(=O)N[C@@H](CCC(=O)NCCCC[C@H](NC(=O)[C@H](CCC(N)=O)NC(=O)[C@H](CCCCN)NC(=O)[C@H](CO)NC(=O)[C@H](CC(C)C)NC(=O)[C@H](CC(=O)O)NC(=O)[C@H](CO)NC(=O)[C@@H](NC(=O)[C@H](Cc1ccccc1)NC(=O)[C@@H](NC(=O)CNC(=O)[C@H](Cc1c[nH]cn1)NC(=O)[C@@H](CO)NC(=O)[C@@H](N)Cc1c[nH]cn1)[C@@H](C)O)[C@@H](C)O)C(=O)N[C@@H](CCC(=O)O)C(=O)N[C@@H](CCC(=O)O)C(=O)N[C@@H](CCC(=O)O)C(=O)N[C@@H](C)C(=O)N[C@H](C(=O)N[C@@H](CCCNC(=N)N)C(=O)N[C@@H](CC(C)C)C(=O)N[C@@H](Cc1ccccc1)C(=O)N[C@H](C(=O)N[C@@H](CCC(=O)O)C(=O)N[C@@H](Cc1c[nH]c2ccccc12)C(=O)N[C@@H](CC(C)C)C(=O)N[C@@H](CCCCN)C(=O)N[C@@H](C)C(=O)NCC(=O)NCC(=O)N1CCC[C@H]1C(=O)N[C@@H](CO)C(=O)N[C@@H](CO)C(=O)NCC(=O)N[C@@H](C)C(=O)N1CCC[C@H]1C(=O)N1CCC[C@H]1C(=O)N1CCC[C@H]1C(=O)N[C@@H](CO)C(N)=O)[C@@H](C)CC)C(C)C)C(=O)O [compound 25] | 39.9 | 407 |  |  |  |  |  |  | 8.1
